Source: article PMC7915353, “Magnolol and Honokiol: Two Natural Compounds with Similar Chemical Structure but Different Physicochemical and Stability Properties” (Pharmaceutics, 2021)
Values after ≈ are worked out from the molar mass of the structure shown. Like-named read-outs stand apart in the source and are kept apart here.

What was measured:
[1] = Solubility at different pH values at 37 °C, shake-flask; format: physicochemical; conditions: for solubility at 24 h: 37 °C, thermodynamic from solid
Description: (§1) The aqueous solubility was evaluated using the shake-flask method. Briefly, approximately 40 mg of magnolol or honokiol were added to a volume of 10 mL of distilled water. The mixture was kept in constant agitation for a total period of 24–48 h. Samples were taken at 24 and 48 h, centrifuged for 2 min at 10× g, and the concentration of the dissolved compound was determined in the supernatant using the analytical method described above. The 48-h sample was used to confirm that a dissolution equilibrium had been reached after 24 h of agitation.
Solubility at different pH values (1.2, 4.5, 6.8, 7.4, 8, 9, and 10) was determined at 37 °C after 24 h of agitation. The composition of the solutions is described in USP 35 [33] and the European Pharmacopeia 7.0 [34]. Briefly, the pH 1.2 solution was prepared with diluted hydrochloric acid, the solutions with pH values from 4.5 to 7.4 were phosphate buffers, and the solutions with pH 9 and 10 were borate buffers. Additionally, two pH 8 solutions were prepared using phosphate and borate buffers.

[2] = Forced-degradation at 60 °C, different pH values; format: physicochemical; conditions: 24 h, 0.1 M HCl, 0.1 M NaOH, buffers pH 7.4-10
Description: The stability of both natural products was evaluated in forced conditions at 60 °C using different pH values. Magnolol and honokiol solutions were prepared in 0.1 M HCl, 0.1 M NaOH, and buffers (pH 7.4, 8, 9, and 10). These solutions were kept at 60 °C for 24 h and the concentration of remaining magnolol and honokiol was determined.

[3] = Solubility in water, shake-flask method; format: physicochemical
Description: as §1

[4] = cited from earlier work
[5] = pKa, graphical estimation from solubility-pH data; format: physicochemical
Source text: Among the components of Magnolia officinalis extracts with pharmacological activity, the most relevant are magnolol and honokiol. These natural compounds have attracted great interest in recent years for their potential therapeutic applications. However, a limitation in the use of magnolol and honokiol is their poor water solubility, which can greatly restrict gastrointestinal absorption and bioavailability. The water solubilities of magnolol and honokiol at room temperature obtained in this work were 12.5 and 50.6 µg/mL, respectively. However, the solubility of both compounds can be affected by the medium pH, since their molecules contain phenolic groups that can be ionized at alkaline pH values. […] Using the obtained solubility–pH data, the pKa of magnolol can be estimated from the intersection of the straight lines corresponding to pH 1.2–6.8 and to pH 7.4–10 in Figure 3 [36]. […] This discrepancy is probably due to the reduced number of values for the second straight line (pH 9 and 10). […] The different solubility values obtained in both studies could be related to the different agitation time, which was shorter in the study of Lee et al. (2 h vs. 24 h). […] In the case of honokiol, no data about its solubility at different pH values have been found in the available literature. […] Again, the discrepancy in these values could be related to the agitation time (4 h vs. 24 h).

[6] = cited from earlier work; remark: listed apart in the source
[7] = Stability under oxidizing conditions (3% H2O2); format: physicochemical; conditions: 3% hydrogen peroxide, 24 h, room temperature, 37 °C and 60 °C
Description: Additionally, stability was examined under oxidizing conditions using 3% H2O2. These samples were kept at room temperature, 37 °C, and 60 °C, for 24 h. The concentration of samples was expressed as a percentage of the initial concentration.

[8] = computer program; cited from earlier work
[9] = Octanol-water distribution coefficients; format: physicochemical
Description: Octanol–water distribution coefficients (Do/w) of magnolol and honokiol were determined by dissolving each compound in n-octanol, previously saturated with buffer (pH 1.2, 4.5, 6.8, and 7.4) or water, using glass vials. Buffers and water saturated with n-octanol were added to the corresponding vials, which were stirred for approximately 12 h at room temperature. Thereafter, the organic and the aqueous phases were separated by centrifuging the contents of the vials (2 min at 8000× g), and the concentration of each compound in both phases was determined by HPLC. The distribution coefficient was obtained as the quotient of the concentrations in the n-octanol and aqueous phases.

[10] = Stability at room temperature and 37 °C, 30 days, different pH; format: physicochemical; conditions: one month
Description: The stability was also evaluated at room temperature and 37 °C (pH 1.2, 4.5, 6.8, 7.4, 8, 9, and 10) after an incubation period of 30 days.

For `C=CCc1ccc(O)c(-c2cc(CC=C)ccc2O)c1` [Magnolol, 5, 5′-diallyl-2, 2′-dihydroxybiphenyl], the solubility at 24 h ([1]; pH 1.2, simulated gastric fluid, pH 1.2, 37 °C, 24 h agitation, read-out: Solubility) was 14.8 µg/mL (≈ 55.4 µM), the solubility at 24 h ([1]; pH 7.4, aqueous buffer, pH 7.4, 37 °C, 24 h agitation, read-out: Solubility) was 30.5 µg/mL (≈ 115 µM) and the solubility at 24 h ([1]; pH 8, aqueous buffer, pH 8 borate buffer, read-out: Solubility) was 138 µg/mL (≈ 518 µM). It also gave a solubility at 24 h ([1]; pH 8, aqueous buffer, pH 8 phosphate buffer, read-out: Solubility) of 76 µg/mL (≈ 285 µM), a solubility at 24 h ([1]; pH 10, aqueous buffer, pH 10, 37 °C, read-out: Solubility) of about 2700 µg/mL (≈ 10100 µM) and a solubility at 24 h ([1]; pH values lower than 7.4, 37 °C, 24 h agitation, read-out: Solubility) of about 16 µg/mL (≈ 60.1 µM). The “Solubility at pH 7.4 in comparison to pH 1.2, fold higher” value ([1]; present study) was about 2 fold, the “Stability at different pH values” [2] was “relatively stable” and the solubility at 24 h ([3]; water, room temperature, preliminary solubility test, read-out: Solubility in water) was 12.5 ± 0.6 µg/mL (≈ 46.9 µM). For the same molecule, the “pKa (first value)” value [4] was 7.10, the “pKa (second value)” value [4] was 10.58 and the pKa ([5]; intersection of straight lines of solubility-pH profile (Figure 3), read-out: pKa, graphical estimation) was 7.2. The Solubility ([6]; pH 1.2, 2 h of agitation) was 3.25 µg/mL (≈ 12.2 µM), the Solubility ([6]; pH 3.5, 2 h of agitation) was 4.95 µg/mL (≈ 18.6 µM) and the Solubility ([6]; pH 7.4, 2 h of agitation) was 0.04 µg/mL (≈ 0.15 µM). The “Solubility at pH 7.4 in comparison to pH 1.2, fold lower” value ([6]; study by Lee et al.) was “approximately 99 fold”, the “Stability under oxidizing conditions” value [7] was “degradation increased with the temperature” and the “log Po/w, theoretical estimation” value [8] was 3.94. It also gave a logP ([9]; aqueous phase H2O, n-octanol, room temperature, mean ± SD, n = 4, read-out: Log Do/w) of 4.07 ± 0.09, a logD ([9]; aqueous phase pH 1.2, n-octanol, room temperature, mean ± SD, n = 4, read-out: Log Do/w) of 4.5 ± 0.1 and a logD ([9]; aqueous phase pH 4.5, n-octanol, room temperature, mean ± SD, n = 4, read-out: Log Do/w) of 4.55 ± 0.11. For the same molecule, the logD ([9]; aqueous phase pH 6.8, n-octanol, room temperature, mean ± SD, n = 4, read-out: Log Do/w) was 4.48 ± 0.06, the logD ([9]; aqueous phase pH 7.4, n-octanol, room temperature, mean ± SD, n = 4, read-out: Log Do/w) was 4.3 ± 0.08 and the logP ([9]; from log Do/w values at the acidic pHs, read-out: log Po/w) was about 4.5.
For `C=CCc1ccc(O)c(-c2ccc(O)c(CC=C)c2)c1` [Honokiol, 3,5′-diallyl-4,2′-dihydroxybiphenyl], the solubility at 24 h ([1]; pH 10, aqueous buffer) was about 220 µg/mL (≈ 826 µM), the solubility at 24 h [1] was about 75 µg/mL (≈ 282 µM) and the solubility at 24 h [3] was 50.6 ± 1.2 µg/mL (≈ 190 µM). For the same molecule, the pKa [5] was 8.5, the “log Po/w, theoretical estimation” value [8] was 4.20 and the Degradation ([10]; pH 4.5 and 6.8, 37 °C) was “a decrease in the initial concentration was detected”. For the same molecule, the “Concentration, percentage of the initial concentration” value ([10]; pH 7.4, 37 °C) was 29%, the “Concentration, percentage of the initial concentration” value ([10]; pH 7.4, room temperature) was 84% and the Degradation ([10]; pH values lower than 7.4, room temperature) was “no degradation”. For the same molecule, the logP ([9]; Log Do/w) was 4.27 ± 0.06, the logP ([9]; log Po/w) was about 4.5 and the logD ([9]; pH 1.2) was 4.48 ± 0.05. It also gave a logD ([9]; pH 4.5) of 4.5 ± 0.08, a logD ([9]; pH 6.8) of 4.48 ± 0.04 and a logD ([9]; pH 7.4) of 4.28 ± 0.05.
